From US12122761B2, “2-azaspiro[3.4]octane derivatives as M4 agonists” (NOVARTIS AG, priority 2019, dated 2024)

Tests used:
[1] = target: T1, human cloned CHRM2 receptor (M2_CHO cells) (Homo sapiens, UniProt P08172); assay: CHRM2 Ca++ Flux Assay (agonist mode, FDSS 7000EX); type: cell-based; settings: for M2 FDSS PA / Emax: Percent Activity measured to EC100 of Carbachol; for Emax: read-out: M2 FDSS PA
T1 construct: expressed in transfected cells; host or cells: CHO-K1
T1 sequence (P08172 1-466): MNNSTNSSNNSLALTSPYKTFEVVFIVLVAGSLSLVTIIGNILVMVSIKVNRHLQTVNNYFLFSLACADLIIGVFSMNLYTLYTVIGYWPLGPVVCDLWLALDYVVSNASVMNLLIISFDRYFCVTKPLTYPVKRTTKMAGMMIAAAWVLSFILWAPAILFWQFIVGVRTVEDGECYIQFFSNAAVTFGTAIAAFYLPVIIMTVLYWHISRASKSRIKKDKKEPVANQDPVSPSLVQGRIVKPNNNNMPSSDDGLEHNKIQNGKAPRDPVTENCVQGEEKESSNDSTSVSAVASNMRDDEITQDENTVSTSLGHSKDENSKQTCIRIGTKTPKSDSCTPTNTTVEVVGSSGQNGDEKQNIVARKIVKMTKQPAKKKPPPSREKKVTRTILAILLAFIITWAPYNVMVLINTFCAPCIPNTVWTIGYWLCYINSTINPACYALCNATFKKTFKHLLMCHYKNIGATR
Outline: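 Agonist-mode Ca++ flux in CHO-K1 cells stably expressing human CHRM2, dye-loaded, then held 60 min at room temperature in buffer with 20 μM ATP before compound addition; traces read over 3 minutes. Four-parameter fit of triplicate wells; percent activity relative to Carbachol EC100.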

[2] = target: T2, human cloned CHRM4 receptor (M4_CHO cells) (Homo sapiens, UniProt P08173); assay: CHRM4 Ca++ Flux Assay (agonist mode, FDSS 7000EX); type: cell-based; settings: for M4 FDSS PA / Emax: Percent Activity; for EC50: geometric mean if tested more than once, read-out: M4 FDSS EC50; for Emax: read-out: M4 FDSS PA
T2 construct: expressed in transfected cells; host or cells: CHO-K1
T2 sequence (P08173 1-479): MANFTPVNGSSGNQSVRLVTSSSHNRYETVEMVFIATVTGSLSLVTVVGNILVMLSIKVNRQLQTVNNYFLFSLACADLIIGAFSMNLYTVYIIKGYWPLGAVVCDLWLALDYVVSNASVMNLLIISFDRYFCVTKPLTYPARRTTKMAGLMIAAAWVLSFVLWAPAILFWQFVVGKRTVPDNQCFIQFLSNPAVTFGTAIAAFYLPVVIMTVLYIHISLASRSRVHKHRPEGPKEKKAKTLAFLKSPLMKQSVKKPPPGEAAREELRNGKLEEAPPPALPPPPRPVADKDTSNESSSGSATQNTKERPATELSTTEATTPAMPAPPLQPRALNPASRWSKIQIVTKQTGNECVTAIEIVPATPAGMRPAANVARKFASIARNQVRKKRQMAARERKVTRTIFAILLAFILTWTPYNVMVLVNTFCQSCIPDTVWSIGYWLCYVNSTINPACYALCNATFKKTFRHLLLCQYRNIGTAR
Outline: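 M4_CHO cells loaded with a Ca++ dye for at least 1 h were held 60 min at room temperature in HEPES/probenecid buffer with 20 μM ATP. Ca++ flux after an 11-point compound dose, in triplicate and agonist mode, was recorded over 3 min. Four-parameter fits gave curves, with activity expressed relative to the Carbachol EC100.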

EC50 [2] | Emax [1] | Emax [2] | EC50 ([1]; agonist mode, geometric mean if tested more than once, read-out: M2 FDSS EC50) | Structure (SMILES) | M2 FDSS PA [1] | M4 FDSS PA [2]
> 25 µM | 0% | 2% |  | COc1ccccc1C1CCN([C@@H]2CCC3(C2)CN(c2cnc(C)nc2)C3)CC1 [Example 5E, (R)-6-(4-(2-methoxyphenyl)piperidin-1-yl)-2-(2-methylpyrimidin-5-yl)-2-azaspiro[3.4]octane] |  | 
> 25 µM | 0% | 1% |  | Cc1coc(N2CC3(CC[C@@H](N4CCC(c5ccccc5OCC(C)(C)O)CC4)C3)C2)n1 [Example 3O, (R)-2-methyl-1-(2-(1-(2-(4-methyloxazol-2-yl)-2-azaspiro[3.4]octan-6-yl)piperidin-4-yl)phenoxy)propan-2-ol] |  | 
0.045 µM |  |  | 14.4 µM | Fc1cncc(N2CC3(CC[C@@H](N4CCC(c5cc(F)ccc5OC5CCOCC5)CC4)C3)C2)c1 (single isomer, unassigned) [Example 10B, (R)-6-(4-(5-fluoro-2-((tetrahydro-2H-pyran-4-yl)oxy)phenyl)piperidin-1-yl)-2-(5-fluoropyridin-3-yl)-2-azaspiro[3.4]octane or (S)-6-(4-(5-fluoro-2-((tetrahydro-2H-pyran-4-yl)oxy)phenyl)piperidin-1-yl)-2-(5-fluoropyridin-3-yl)-2-azaspiro[3.4]octane] | 31% | 41%
0.038 µM |  |  |  | O=C(N1CC2(CC[C@@H](N3CCC(c4cc(F)ccc4OC4CC5(COC5)C4)CC3)C2)C1)C1(F)CC1 (single isomer, unassigned) [Example 11A, (R)-(6-(4-(2-((2-oxaspiro[3.3]heptan-6-yl)oxy)-5-fluorophenyl)piperidin-1-yl)-2-azaspiro[3.4]octan-2-yl)(1-fluorocyclopropyl)methanone or (S)-(6-(4-(2-((2-oxaspiro[3.3]heptan-6-yl)oxy)-5-fluorophenyl)piperidin-1-yl)-2-azaspiro[3.4]octan-2-yl)(1-fluorocyclopropyl)methanone] | 0% | 45%
> 25 µM | 0% | 6% |  | Cc1ncncc1N1CC2(CC[C@@H](N3CCC(c4ccccc4OCC(C)(C)O)CC3)C2)C1 [Example 5C, (R)-2-methyl-1-(2-(1-(2-(4-methylpyrimidin-5-yl)-2-azaspiro[3.4]octan-6-yl)piperidin-4-yl)phenoxy)propan-2-ol] |  | 
0.002 µM | 0% | 64% |  | COc1ccccc1C1CCN([C@@H]2CCC3(C2)CN(c2cncnc2)C3)CC1 [Example 5A, (R)-6-(4-(2-methoxyphenyl)piperidin-1-yl)-2-(pyrimidin-5-yl)-2-azaspiro[3.4]octane] |  | 

Structure (SMILES) | EC50 [2] | Emax [1] | Emax [2] | EC50 ([1]; agonist mode, geometric mean if tested more than once, read-out: M2 FDSS EC50) | M2 FDSS PA [1] | M4 FDSS PA [2]
CC(C)(O)CCOc1ccccc1C1CCN([C@@H]2CCC3(C2)CN(C(=O)C2(F)CC2)C3)CC1 (single isomer, unassigned) [Example 7BB, (R)-(1-fluorocyclopropyl)(6-(4-(2-(3-hydroxy-3-methylbutoxy)phenyl)piperidin-1-yl)-2-azaspiro[3.4]octan-2-yl)methanone or (S)-(1-fluorocyclopropyl)(6-(4-(2-(3-hydroxy-3-methylbutoxy)phenyl)piperidin-1-yl)-2-azaspiro[3.4]octan-2-yl)methanone] | 0.002 µM |  |  |  | 0% | 38%
COC(C)(C)CCOc1ccccc1C1CCN([C@@H]2CCC3(C2)CN(C(=O)C2(F)CC2)C3)CC1 (single isomer, unassigned) [Example 7FF, (R)-(1-fluorocyclopropyl)(6-(4-(2-(3-methoxy-3-methylbutoxy)phenyl)piperidin-1-yl)-2-azaspiro[3.4]octan-2-yl)methanone or (S)-(1-fluorocyclopropyl)(6-(4-(2-(3-methoxy-3-methylbutoxy)phenyl)piperidin-1-yl)-2-azaspiro[3.4]octan-2-yl)methanone] | 0.005 µM |  |  |  | 0% | 38%
